Test results as given in patent US8618289B2 (Ambit Biosciences Corporation, priority 2008, dated 2013).
pEC50, pIC50, pKd: −log10 of the molar value.

Tests used:
RAF kinases = RAF kinases (Homo sapiens, UniProt P15056); test: biochemical
A375 cells = test: cells; settings: Homo sapiens, A-375, read-out: A375 Viability EC50
[1] = tested on: MEK1 phosphorylation in the A375 human melanoma cell line; test: cells; settings: A-375, read-out: pMEK IC50

RAF kinases, sequence (P15056 whole entry): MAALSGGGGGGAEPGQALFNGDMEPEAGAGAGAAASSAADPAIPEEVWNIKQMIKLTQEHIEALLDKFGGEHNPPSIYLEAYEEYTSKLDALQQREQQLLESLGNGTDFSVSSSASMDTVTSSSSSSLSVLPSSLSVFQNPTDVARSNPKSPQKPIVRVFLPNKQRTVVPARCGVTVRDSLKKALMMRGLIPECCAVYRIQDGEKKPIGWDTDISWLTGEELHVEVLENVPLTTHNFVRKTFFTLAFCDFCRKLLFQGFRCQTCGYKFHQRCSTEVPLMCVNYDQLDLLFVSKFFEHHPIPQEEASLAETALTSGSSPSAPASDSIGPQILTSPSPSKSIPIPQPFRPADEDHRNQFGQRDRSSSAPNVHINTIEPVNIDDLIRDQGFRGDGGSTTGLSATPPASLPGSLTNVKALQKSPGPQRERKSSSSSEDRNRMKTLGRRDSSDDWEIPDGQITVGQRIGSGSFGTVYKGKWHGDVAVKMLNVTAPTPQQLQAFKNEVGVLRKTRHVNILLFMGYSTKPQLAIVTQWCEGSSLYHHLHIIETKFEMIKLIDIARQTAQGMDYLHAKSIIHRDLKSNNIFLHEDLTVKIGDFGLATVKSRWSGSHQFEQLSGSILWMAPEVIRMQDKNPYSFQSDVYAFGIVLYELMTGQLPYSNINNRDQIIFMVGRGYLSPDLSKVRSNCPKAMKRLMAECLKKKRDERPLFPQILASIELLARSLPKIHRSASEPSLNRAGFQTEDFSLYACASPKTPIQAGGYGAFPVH

Compound	pKd (RAF kinases)	pEC50 (A375 cells)	pIC50 [1]
COc1cc2ncnc(Sc3cccc(NC(=O)Nc4cccc(C(F)(F)F)c4)c3)c2cc1OC [Ex 185, 1-(3-(6,7-dimethoxyquinazolin-4-ylthio)phenyl)-3-(3-(trifluoromethyl)phenyl)urea]	6.30 to 6.60	< 6.00	6.00 to 6.30
COc1cc2ncnc(Oc3cccc(NC(=O)Nc4cc(C(C)(C)C)on4)c3)c2cc1O [Ex 107, 1-(5-tert-butylisoxazol-3-yl)-3-(3-(6-hydroxy-7-methoxyquinazolin-4-yloxy)phenyl)urea]	6.30 to 6.60	6.30 to 6.60	> 6.60
COc1cc2ncnc(Sc3cccc(NC(=O)Nc4cccc(C(C)(C)C)c4)c3)c2cc1OC [Ex 120, 1-(3-tert-butylphenyl)-3-(3-(6,7-dimethoxyquinazolin-4-ylthio)phenyl)urea]	6.30 to 6.60	< 6.00	6.30 to 6.60
COc1cc2ncnc(Sc3cccc(NC(=O)Nc4cc(C(C)(C)C)on4)c3)c2cc1OCCCN1CCN(CCO)CC1 [Ex 61, 1-(5-tert-butylisoxazol-3-yl)-3-(3-(6-(3-(4-(2-hydroxyethyl)piperazin-1-yl)propoxy)-7-methoxyquinazolin-4-ylthio)phenyl)urea]	6.30 to 6.60	< 6.00	< 6.00
COc1cc2ncnc(Sc3cccc(NC(=O)Nc4cc(C5CCCC5)on4)c3)c2cc1OC [Ex 201, 1-(5-cyclopentylisoxazol-3-yl)-3-(3-(6,7-dimethoxyquinazolin-4-ylthio)phenyl)urea]	6.30 to 6.60	< 6.00	6.30 to 6.60
COc1cc2ncnc(Sc3cccc(NC(=O)Nc4cc(C(C)(C)C)on4)c3)c2cc1OCCCN1CCS(=O)(=O)CC1 [Ex 62, 1-(5-tert-butyl-isoxazol-3-yl)-3-(3-{6-[3-(1,1-dioxo-thiomorpholin-4-yl)-propoxy]-7-methoxy-quinazolin-4-ylsulfanyl}-phenyl)-urea]	6.30 to 6.60	> 6.60	> 6.60

Further lines, results first:

pKd (RAF kinases)	pEC50 (A375 cells)	pIC50 [1]	Compound
6.30 to 6.60	< 6.00	6.30 to 6.60	COc1cc2ncnc(Oc3cccc(NC(=O)Nc4cccc(C(C)C)c4)c3)c2cc1OC [Ex 144, 1-(3-(6,7-dimethoxyquinazolin-4-yloxy)phenyl)-3-(3-isopropylphenyl)urea]
6.30 to 6.60	< 6.00	6.00 to 6.30	COc1cc2ncnc(Oc3cccc(NC(=O)Nc4ccc(C(F)(F)F)cc4)c3)c2cc1OC [Ex 183, 1-(3-(6,7-dimethoxyquinazolin-4-yloxy)phenyl)-3-(4-(trifluoromethyl)phenyl)urea]
6.30 to 6.60	6.30 to 6.60	> 6.60	COc1cc2ncnc(Oc3cccc(NC(=O)Nc4cc(C(C)(C)C)on4)c3)c2cc1OC[C@@H](O)CN1CCN(C)CC1 [Ex 111, (S)-1-(5-tert-butylisoxazol-3-yl)-3-(3-(6-(2-hydroxy-3-(4-methylpiperazin-1-yl)propoxy)-7-methoxyquinazolin-4-yloxy)phenyl)urea]
6.30 to 6.60	> 6.60	> 6.60	COc1cc2ncnc(Sc3cccc(NC(=O)Nc4cc(C(C)(CF)CF)on4)c3)c2cc1OC [Ex 191, 1-[5-(1,3-difluoro-2-methylpropan-2-yl)isoxazol-3-yl]-3-[3-(6,7-dimethoxyquinazolin-4-ylthio)phenyl]urea]
6.30 to 6.60	< 6.00	6.00 to 6.30	COc1cc2ncnc(Oc3cccc(NC(=O)Nc4cc(C(C)(C)CO)on4)c3)c2cc1OC [Ex 131, 1-(3-(6,7-dimethoxyquinazolin-4-yloxy)phenyl)-3-(5-(1-hydroxy-2-methylpropan-2-yl)isoxazol-3-yl)urea]
6.30 to 6.60	> 6.60	> 6.60	COc1cc2c(Oc3cccc(NC(=O)Nc4cc(C(C)(C)C)on4)c3)ncnc2cc1OCCCN1CCN(C)CC1 [Ex 28, 1-(5-tert-butylisoxazol-3-yl)-3-(3-(6-methoxy-7-(3-(4-methylpiperazin-1-yl)propoxy)quinazolin-4-yloxy)phenyl)urea]
